From patent publication US4868203A, “Bacterial substance and pharmaceutical composition thereof” (Kabushikikaisha Ueno Seiyaku Oyo Kenkyujo, priority 1986, dated 1989)
≈ marks a conversion by molar mass, not a printed value. Where “and” joins values, the source holds several entries; their conditions need not be identical. Equal values may be shown once.

Columns and labels:
[1] = Storage life of steamed Chinese noodles (Test Example 5)
Method: After kneading for 10 minutes. the product was rolled and cut with cutting edge (#10) to give noodles. The resulting noodles were steamed at the temperature higher than 98° C. for 6 minutes, washed with water, packed in polyethylene packages (each weighing 40 g) and heated at 85° C. for 30 minutes. The obtained packages containing Chinese noodles (10 bags/group) were maintained at 30° C. and the change in appearance with time was observed and preservation effect was evaluated according to the following evaluation scale. The values shown in the following Table are averaged evaluation levels of degeneration.

[2] = Storage life of kamaboko, rot-proof property (Test Example 4)
Method: Fish paste was prepared by adding NaCl (2.5%), chemical seasoning (0.8%), starch (5%) and ice water (10%) based on frozen surimi of walleye pollack (4 kg) and cutting by a silent cutter for 10 minutes. Predetermined amount of bacterial substance UFC-N11 based on the resulting fish paste (2 kg) was added and completely mixed in a small mixer for 5 minutes. About 100 g fish paste were enclosed with polyvinylidene chloride film (spread width:45 mm), boiled at 90° C. for 30 minutes, quenched, left overnight and then tested for rot-proof property.
The test was conducted as follows. As the complete package products, 10 pieces/group of kamaboko processed by casing method samples and, as the simplified package products, 10 pieces/group prepared by peeling off the casing under sterilized condition, cutting into 2 round slices (thickness: 10 mm) by a sterilized knife and placing in a sterilized plastic Petri dish. were placed in a thermostatic chamber at 30° C. and evaluated by macroscopically observation. The evaluation uses five-level scale shown below. The period until the average evaluation value of 1 is attained is defined as the storage life.

[3] = system: Salmonella enteritidis 1891; type: cell-based
Method: (§1) The minimum growth inhibitory concentration (MIC) values of bacterial substance UFC-N11 to various kinds of bacteria determined according to the conventional method were measured in the conventional manner.

[4] = system: Enterobacter cloacae IID977; type: cell-based
Method: as §1

[5] = system: Pseudomonas syringae PV lachrymans NIAES 1316; type: cell-based; conditions: Pseudomonas syringae PV lachrymans NIAES 1316 (angular leaf spot of cucumber)
Method: as §1

[6] = system: Campylobacter jejuni; type: cell-based
Method: as §1

[7] = system: Pseudomonas syringae PV Mori NIAES 1020; type: cell-based; conditions: Pseudomonas syringae PV Mori NIAES 1020 (bacterial rugose)
Method: as §1

[8] = system: Campylobacter fetus; type: cell-based
Method: as §1

[9] = system: Klebsiella pneumoniae; type: cell-based
Method: as §1

[10] = system: Bacillus subtilis 6633; type: cell-based
Method: as §1

[11] = system: Proteus vulgaris OX-19; type: cell-based
Method: as §1

[12] = system: Salmonella typhimurium; type: cell-based
Method: as §1

[13] = system: Pseudomonas syringae PV lachrymans NIAES 1316; assay: Evaluation of activity against the bacterial spot of cucumber (Test Example 3); type: in vivo; conditions: 50 ppm
Method: Cucumber(Green tokiwa) was used for the test. Potted cucumber plants (2 leaf stage) were sprayed with sufficient amount of 50 ppm solution of bacterial substance UFC-N11 (dissolved in 0.05% aqueous sodium bicarbonate), air-dried, and spray-inoculated 10^8 /ml suspension of Pseudomonas Syringae PV lachrymans NIAES 1316, cultured on Wakimoto medium for 3 days, on both sides of leaves. For the control, an experiment was carried out using a solution without the substance N11 in the same manner as described above. After inoculation, the plants were maintained at 28° C. for 24 hours and maintained in a glass house until the day of evaluation. Six days after inoculation, percentage of spots area affected on the first and second seed leaf was observed and protection value was calculated according to the following formula: [formula] The experiment was repeated using Cu(OH)2 (Kosaid) 83% wettable powder (produced by Hokko chemical Industry Co. Ltd.) as a positive reference. In this case CaCO3 (Kurefunon) (produced by Shiraishi Calcium) was added (×200) in order to reduce damage.

[14] = system: Pasteurella piscicida DM-85 strain; parameters: species or system yellowtail; conditions: in vivo
[15] = system: Xandomonas campestris PV oryzae H75373; type: cell-based
[16] = Absorbance by oral administration, absorption and secretion in yellowtail (Test Example 10); type: in vivo; conditions: oral 100 mg/kg
Method: To a cultured yellowtail, UFC-N11 was compulsorily oral-administered at the rate of 100 mg/kg per body weight of fish. The tissue samples were collected 3, 8, and 24 hours later respective in order to determine the concentrations in the tissues.

[17] = system: Pasteurella piscicida KGP86041; type: cell-based
[18] = Solubility in various solvents
[19] = system: Vibrio anguillarum 25-1; assay: Minimum growth inhibiting concentration, pathogenic bacteria of fish disease (Test Example 8); type: cell-based; conditions: Vibrio anguillarum 25-1 (Vibrio disease of sweetfish)
From the text: (§2) The minimum growth inhibitory concentrations (MIC) of the bacterial substance UFC-N11 against various bacteria were according to conventional procedure the results are as follows: […]

[20] = system: Flexibacter columnaris V-II; assay: as above; type: cell-based; conditions: Flexibacter columnaris V-II (Columnaris disease of eel)
From the text: as §2

[21] = system: Aeromonas hydrophila IAM108; assay: as above; type: cell-based; conditions: Aeromonas hydrophila IAM108 (Aeromonas disease of carp)
From the text: as §2

[22] = system: Vibrio anguillarum K-3; assay: as above; type: cell-based; conditions: Vibrio anguillarum K-3 (Vibrio disease of young yellowtail)
From the text: as §2

[23] = system: Edwardssiella tarda 4-1; assay: as above; type: cell-based; conditions: Edwardssiella tarda 4-1 (Edwardsiellosis of eel)
From the text: as §2

[24] = system: Aeromonas salmonicida, MC7503; assay: as above; type: cell-based; conditions: MC7503 (Furunculosis of salmonids)
From the text: as §2

[25] = system: Pasteurella piscicida; assay: microbe, parasite or virus in culture; type: cell-based
[26] = system: Pseudomonas solanacearum NIAES 1418; type: cell-based; conditions: Pseudomonas solanacearum NIAES 1418 (wilt of solanum)

CC=CC=CC=CC(=O)NC(CC(=O)NC(C(=O)C1C(=O)NC(=O)C1C)C(C)C)c1ccccc1 (stereo not drawn) [UFC-N11]
Storage life ([1]; 0.1 ppm, pH of product 9.39, 30° C.): 6.0 days | Storage life ([1]; 1.0 ppm, pH of product 9.41, 30° C.): 8.1 days | Storage life ([1]; 10 ppm, pH of product 9.40, 30° C.): 10.0 days | Storage life ([1]; 50 ppm, pH of product 9.38, 30° C.): 16.0 days | Storage life ([1]; 100 ppm, pH of product 9.41, 30° C.): 20.0 days | preservability of the heated and steamed Chinese noodles ([1]; upon addition of UFC-N11): remarkably improved | Storage life, Complete package ([2]; 0.01 ppm, pH 7.06, 30° C.): 5.0 days | Storage life, simplified package ([2]; 0.01 ppm, pH 7.06, 30° C.): 2.5 days | Storage life, Complete package ([2]; 0.1 ppm, pH 7.06, 30° C.): 7.0 days | Storage life, simplified package ([2]; 0.1 ppm, pH 7.06, 30° C.): 3.0 days | Storage life, Complete package ([2]; 1.0 ppm, pH 7.05, 30° C.): 9.0 days | Storage life, simplified package ([2]; 1.0 ppm, pH 7.05, 30° C.): 4.5 days | Storage life, Complete package ([2]; 10 ppm, pH 7.05, 30° C.): 14.0 days | Storage life, simplified package ([2]; 10 ppm, pH 7.05, 30° C.): 7.5 days | Storage life, Complete package ([2]; 50 ppm, pH 7.04, 30° C.): 18.0 days | Storage life, simplified package ([2]; 50 ppm, pH 7.04, 30° C.): 9.0 days | Storage life, Complete package ([2]; 100 ppm, pH 7.06, 30° C.): 24.0 days | Storage life, simplified package ([2]; 100 ppm, pH 7.06, 30° C.): 12.0 days | MIC [3]: 0.78 µg/mL (≈ 1.63 µM) | MIC [4]: 25 µg/mL (≈ 52.1 µM) | MIC [5]: 6.25 µg/mL (≈ 13 µM) | MIC [6]: 0.78 µg/mL (≈ 1.63 µM) | MIC [7]: 25 µg/mL (≈ 52.1 µM) | MIC [8]: 1.56 µg/mL (≈ 3.25 µM) | MIC [9]: 12.5 µg/mL (≈ 26.1 µM) | MIC [10]: 0.39 µg/mL (≈ 0.813 µM) | MIC [11]: 0.195 µg/mL (≈ 0.407 µM) | MIC [12]: 6.25 µg/mL (≈ 13 µM) | Damage ([13]; cucumber plants): Nil | Protection ([13]; sprayed before inoculation, 6 days): 36.8 | therapeutic effect [14]: excellent therapeutic effect | MIC [15]: 0.05 µg/mL (≈ 0.104 µM) | absorption [16]: absorbed in concentrations which were equal to or in excess of the anti-bacterial activity | Concentration in tissue, Kidney ([16]; 3 hr): 6.55 µg/g | Concentration in tissue, Liver ([16]; 3 hr): 8.79 µg/g | Concentration in tissue, Muscle ([16]; 3 hr): 0.96 µg/g | Concentration in tissue, Plasma ([16]; 3 hr): 2100 ng/mL | Concentration in tissue, Kidney ([16]; 8 hr): 4.02 µg/g | Concentration in tissue, Liver ([16]; 8 hr): 5.14 µg/g | Concentration in tissue, Muscle ([16]; 8 hr): 1.12 µg/g | Concentration in tissue, Plasma ([16]; 8 hr): 1340 ng/mL | Concentration in tissue, Kidney ([16]; 24 hr): 1.13 µg/g | Concentration in tissue, Liver ([16]; 24 hr): 1.36 µg/g | Concentration in tissue, Muscle ([16]; 24 hr): < 0.25 µg/g | Concentration in tissue, Plasma ([16]; 24 hr): < 125 ng/mL | MIC [17]: 0.16 µg/mL (≈ 0.334 µM) | Solubility in various solvents ([18]; n-hexane, chloroform, benzene and water): slightly soluble or insolbule | Solubility in various solvents ([18]; pyridine, acetic acid, dimethyl sulfoxide, methanol, ethanol, acetone, ethyl acetate and dimethyl ether): soluble | MIC [19]: 2.5 µg/mL (≈ 5.21 µM) | MIC [20]: 0.63 µg/mL (≈ 1.31 µM) | MIC [21]: 5.0 µg/mL (≈ 10.4 µM) | MIC [22]: 2.5 µg/mL (≈ 5.21 µM) | MIC [23]: 2.5 µg/mL (≈ 5.21 µM) | MIC [24]: 1.25 µg/mL (≈ 2.61 µM) | MIC [25]: 0.31 µg/mL and 0.16 µg/mL | antibacterial activity [25]: excellent antibacterial activity | MIC [26]: 1.56 µg/mL (≈ 3.25 µM)
